From ChEMBL document CHEMBL1201862, “PubChem BioAssay data set” (2004)
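96-well plates; 48 h exposure; 5 concentrations. Endpoints by linear interpolation between flanking doses. Not reached: highest tested concentration assigned. GI50: concentration for 50% inhibition of growth.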 Active and inactive are the calls of the source. Cut-off read from the data, not from the text of the source: active = GI50 up to about 1.1 µM and inactive = higher.

Experiments:
Assay in all cases: inhibition of tumour cell growth, NCI panel, 48 h
SK-OV-3 = tested on: SK-OV-3
OVCAR-5 = tested on: OVCAR-5
HCC 2998 = tested on: HCC 2998
MOLT-4 = tested on: MOLT-4
SK-MEL-5 = tested on: SK-MEL-5
OVCAR-8 = tested on: OVCAR-8
NCI-H522 = tested on: NCI-H522
HCT-15 = tested on: HCT-15
ACHN = tested on: ACHN
TK-10 = tested on: TK-10
UO-31 = tested on: UO-31
SK-MEL-2 = tested on: SK-MEL-2
RPMI-8226 = tested on: RPMI-8226
786-0 = tested on: 786-0
NCI-H226 = tested on: NCI-H226
UACC-257 = tested on: UACC-257

Row | Structure (SMILES) | GI50 (SK-OV-3) | GI50 (OVCAR-5) | GI50 (HCC 2998) | GI50 (MOLT-4) | GI50 (SK-MEL-5) | GI50 (OVCAR-8) | GI50 (NCI-H522) | GI50 (HCT-15) | GI50 (ACHN) | GI50 (TK-10) | GI50 (UO-31) | GI50 (SK-MEL-2) | GI50 (RPMI-8226) | GI50 (786-0) | GI50 (NCI-H226) | GI50 (UACC-257)
1 | Oc1ccc2ccccc2c1/N=N/c1ccc(F)cc1 | > 100 µM (inactive) | > 100 µM (inactive) | > 100 µM (inactive) | > 100 µM (inactive) | > 100 µM (inactive) | > 100 µM (inactive) | > 100 µM (inactive) | > 100 µM | > 100 µM (inactive) | > 100 µM (inactive) | 42.6 µM (inactive) | > 100 µM (inactive) | > 100 µM (inactive) | > 100 µM (inactive) | – | –
2 | CC(=O)OC1CC2(c3ccccc3)C(=O)c3ccccc3N2O1 (centres undefined) | > 100 µM (inactive) | – | > 100 µM (inactive) | > 100 µM (inactive) | > 100 µM (inactive) | > 100 µM (inactive) | > 100 µM (inactive) | > 100 µM | > 100 µM (inactive) | – | > 100 µM (inactive) | – | > 100 µM (inactive) | > 100 µM (inactive) | > 100 µM (inactive) | > 100 µM (inactive)
3 | CNS(=O)(=O)NNS(=O)(=O)c1ccc(OC)cc1 | > 100 µM (inactive) | – | > 100 µM (inactive) | > 100 µM (inactive) | > 100 µM (inactive) | > 100 µM (inactive) | > 100 µM (inactive) | > 100 µM | > 100 µM (inactive) | – | > 100 µM (inactive) | > 100 µM (inactive) | > 100 µM (inactive) | > 100 µM (inactive) | – | > 100 µM (inactive)
4 | c1ccc(SC2(Sc3ccccc3)CCCC2)cc1 | > 100 µM (inactive) | – | – | > 100 µM (inactive) | > 100 µM (inactive) | > 100 µM (inactive) | > 100 µM (inactive) | > 100 µM | > 100 µM (inactive) | > 100 µM (inactive) | > 100 µM (inactive) | > 100 µM (inactive) | > 100 µM (inactive) | > 100 µM (inactive) | – | > 100 µM (inactive)
5 | O=C(CCC(=O)Nc1ccc(Cl)cc1)CC(=O)c1ccc(F)cc1 | > 100 µM (inactive) | > 100 µM (inactive) | > 100 µM (inactive) | > 100 µM (inactive) | – | > 100 µM (inactive) | > 100 µM (inactive) | > 100 µM | > 100 µM (inactive) | > 100 µM (inactive) | > 100 µM (inactive) | > 100 µM (inactive) | > 100 µM (inactive) | > 100 µM (inactive) | > 100 µM (inactive) | > 100 µM (inactive)
6 | CC1=C(C(=O)O)N2C(=O)[C@@H](NC(=O)C(c3ccccc3)N3CSC(=S)N(C(C)C)C3)C2SC1 (some centres undefined) | > 100 µM (inactive) | > 100 µM (inactive) | – | > 100 µM (inactive) | > 100 µM (inactive) | > 100 µM (inactive) | 30.4 µM (inactive) | > 100 µM | > 100 µM (inactive) | > 100 µM (inactive) | > 100 µM (inactive) | > 100 µM (inactive) | > 100 µM (inactive) | > 100 µM (inactive) | – | > 100 µM (inactive)
7 | CC(C)(C)C(=O)C1CC(=O)c2ccccc2C1=O (centres undefined) | 27.1 µM (inactive) | 37.1 µM (inactive) | 23.4 µM (inactive) | 27.8 µM (inactive) | 32.4 µM (inactive) | 37 µM (inactive) | 23.6 µM (inactive) | – | 44.7 µM (inactive) | 34.1 µM (inactive) | 21.7 µM (inactive) | 10.6 µM (inactive) | 23 µM (inactive) | 32.6 µM (inactive) | 35.2 µM (inactive) | 18.2 µM (inactive)
8 | N#CC(C#N)c1ccc(C(=O)N2CCC[C@H]2CO)cc1 | > 100 µM (inactive) | > 100 µM (inactive) | > 100 µM (inactive) | > 100 µM (inactive) | 0.471 µM (active) | > 100 µM (inactive) | > 100 µM (inactive) | > 100 µM | > 100 µM (inactive) | > 100 µM (inactive) | > 100 µM (inactive) | > 100 µM (inactive) | > 100 µM (inactive) | > 100 µM (inactive) | – | > 100 µM (inactive)
9 | C#CCC(O)c1ccccc1C(O)CC#C (centres undefined) | 39.7 µM (inactive) | > 100 µM (inactive) | 89.3 µM (inactive) | > 100 µM (inactive) | > 100 µM (inactive) | > 100 µM (inactive) | 70.1 µM (inactive) | > 100 µM | 75.5 µM (inactive) | 97.5 µM (inactive) | > 100 µM (inactive) | 62.1 µM (inactive) | > 100 µM (inactive) | > 100 µM (inactive) | – | > 100 µM (inactive)
10 | N#Cc1cc([N+](=O)[O-])ccc1NC(=O)C(=O)C(C(=O)/C=C/c1ccccc1)C1OC(=O)c2ccccc21 (centres undefined) | > 100 µM (inactive) | > 100 µM (inactive) | > 100 µM (inactive) | – | > 100 µM (inactive) | > 100 µM (inactive) | > 100 µM (inactive) | > 100 µM | > 100 µM (inactive) | > 100 µM (inactive) | > 100 µM (inactive) | – | – | > 100 µM (inactive) | > 100 µM (inactive) | > 100 µM (inactive)
11 | COc1cc2ccc3c4ccccc4cnc3c2cc1OC | > 100 µM (inactive) | > 100 µM (inactive) | > 100 µM (inactive) | 93.1 µM (inactive) | > 100 µM (inactive) | > 100 µM (inactive) | > 100 µM (inactive) | > 100 µM | > 100 µM (inactive) | > 100 µM (inactive) | > 100 µM (inactive) | > 100 µM (inactive) | > 100 µM (inactive) | > 100 µM (inactive) | > 100 µM (inactive) | > 100 µM (inactive)
12 | C/C(=N/NC(=O)C[N+](C)(C)C)C(CN(C)C)C(=O)Nc1ccccc1 (centres undefined) | > 100 µM (inactive) | > 100 µM (inactive) | 96.8 µM (inactive) | > 100 µM (inactive) | > 100 µM (inactive) | > 100 µM (inactive) | > 100 µM (inactive) | > 100 µM | > 100 µM (inactive) | > 100 µM (inactive) | > 100 µM (inactive) | > 100 µM (inactive) | – | > 100 µM (inactive) | > 100 µM (inactive) | > 100 µM (inactive)
13 | Cc1cc(C)nc(NS(=O)(=O)c2ccc(Nc3c4ccccc4nc4c(C(=O)Nc5ccc(S(=O)(=O)N=C(N)N)cc5)cccc34)cc2)n1 | > 100 µM (inactive) | 51.8 µM (inactive) | > 100 µM (inactive) | > 100 µM (inactive) | > 100 µM (inactive) | > 100 µM (inactive) | > 100 µM (inactive) | > 100 µM | > 100 µM (inactive) | > 100 µM (inactive) | 85.3 µM (inactive) | > 100 µM (inactive) | > 100 µM (inactive) | > 100 µM (inactive) | – | > 100 µM (inactive)
14 | N#CC(C(=O)C(N)=O)c1ccccc1Cl (centres undefined) | > 100 µM (inactive) | > 100 µM (inactive) | > 100 µM (inactive) | > 100 µM (inactive) | > 100 µM (inactive) | > 100 µM (inactive) | – | > 100 µM | > 100 µM (inactive) | > 100 µM (inactive) | > 100 µM (inactive) | > 100 µM (inactive) | > 100 µM (inactive) | > 100 µM (inactive) | > 100 µM (inactive) | > 100 µM (inactive)
15 | COCCN1C2=CCCCC2=Nc2c1nc(N)[nH]c2=O | > 100 µM (inactive) | > 100 µM (inactive) | > 100 µM (inactive) | > 100 µM (inactive) | > 100 µM (inactive) | > 100 µM (inactive) | > 100 µM (inactive) | > 100 µM | > 100 µM (inactive) | > 100 µM (inactive) | > 100 µM (inactive) | – | > 100 µM (inactive) | > 100 µM (inactive) | > 100 µM (inactive) | > 100 µM (inactive)
16 | CC1(C)COC(c2cccnc2/C=N/O)=N1 | > 100 µM (inactive) | > 100 µM (inactive) | – | > 100 µM (inactive) | > 100 µM (inactive) | > 100 µM (inactive) | > 100 µM (inactive) | > 100 µM | > 100 µM (inactive) | > 100 µM (inactive) | > 100 µM (inactive) | > 100 µM (inactive) | – | > 100 µM (inactive) | > 100 µM (inactive) | > 100 µM (inactive)
17 | Cc1cc(N(CCC#N)CCC#N)ccc1/C=C1N=C(/C=C\c2ccccc2)N(NC(=O)CC(=O)Nc2ccccc2Cl)C\1=O | > 100 µM (inactive) | > 100 µM (inactive) | – | > 100 µM (inactive) | > 100 µM (inactive) | > 100 µM (inactive) | > 100 µM (inactive) | > 100 µM | > 100 µM (inactive) | > 100 µM (inactive) | > 100 µM (inactive) | > 100 µM (inactive) | > 100 µM (inactive) | > 100 µM (inactive) | > 100 µM (inactive) | > 100 µM (inactive)
18 | CCCC1N2CCCCC2[C@@H]2c3[nH]c4ccccc4c3CCN12 (some centres undefined) | > 100 µM (inactive) | > 100 µM (inactive) | > 100 µM (inactive) | > 100 µM (inactive) | > 100 µM (inactive) | > 100 µM (inactive) | – | > 100 µM | > 100 µM (inactive) | – | > 100 µM (inactive) | > 100 µM (inactive) | > 100 µM (inactive) | > 100 µM (inactive) | – | > 100 µM (inactive)
19 | CCC(C)(C)C(=O)O[C@H]1C[C@@H](C)C=C2C=C[C@H](C)[C@H](CC[C@@H]3C[C@@H](O)CC(=O)O3)[C@H]21 [SIMVASTATIN] | 1.72 µM (inactive) | – | 16.5 µM (inactive) | > 30 µM (inactive) | – | 1.37 µM (inactive) | – | 1.12 µM | 0.447 µM (active) | – | 3.72 µM (inactive) | 0.522 µM (active) | 8.2 µM (inactive) | 9.33 µM (inactive) | – | 17.3 µM (inactive)
